Data taken from US4189499A, “Lysine 4-allyloxy-3-chlorophenylacetate and method of its preparation” (priority 1979, dated 1980).
Values joined by “and” are separate entries in the source; they are usually repeats but may differ in a detail not shown here. Identical values can stand only once. “Also recorded” adds a separate entry of the source. Like-named read-outs stand apart in the source and are kept apart here.

Experiments:
[1] = system: rabbit dorsal long muscle; experiment: Local tolerability after intramuscular injection, muscle removed at 24 hours, irritation by arbitrary scores; type: in vivo; parameters: scale not given here
Protocol: Such a tolerability was estimated after injection of equivalent solutions of the various preparations, effected in the rabbit dorsal long muscle, removing muscle 24 hours after injection and estimating the degree of induced irritation through arbitrary scores.

pH of aqueous solution = type: physicochemical
[2] = Pharmacokinetics after i.v. injection in rabbits; type: in vivo, rabbit; details: i.v. 90 mg/kg (as acid)
Protocol: (§1) The following pharmacological experimentation was carried out in order to estimate the comparative absorption and bioavailability through various administration routes in rabbits of Alclofenac acid and its lysine salt.

[3] = General tolerability by route of administration; type: in vivo
Solubility = type: physicochemical; details: in words, solvent as stated
[4] = Analgesic, antipyretic and antiinflammatory activity; type: in vivo; details: versus the starting acid
rat leg = experiment: Tolerability by volume increase of rat leg versus commercial injectable preparations; type: in vivo; details: FIG. 1
Description: This type of preparation was estimated also in comparison with commercially available injectable preparations according to the method of volume increase of rat leg and results are shown in FIG. 1 of the drawings.

[5] = Pharmacokinetics from plasma levels after oral, rectal and intramuscular administration in rabbits; type: in vivo, rabbit
Protocol: as §1

[6] = Extent of availability after different routes, intravenous administration as reference; type: in vivo, rabbit
Protocol: as §1

[7] = Stability and hygroscopicity; type: physicochemical
[8] = 100 mg/ml (as acid), 0.5 ml injected
[9] = 131 mg/ml (as acid), 0.25 ml injected
[10] = individual, in order Rabbit I, II, III, IV, 90 mg/kg
[11] = INTRAMUSCOLAR 80 mg/kg, ± E.S.M.
[12] = P.OS 90 mg/kg, ± E.S.M., listed as Lysine Salt
[13] = P.OS 90 mg/kg, ± E.S.M., listed as Lysine Salt, 90 mg/kg
[14] = RECTAL 100 mg/kg, ± E.S.M., listed as Lysine Salt
[15] = RECTAL 100 mg/kg, ± E.S.M., listed as Lysine Salt, 100 mg/kg
[16] = rabbit, plasma, im, 80 mg/kg, INTRAMUSCOLAR 80 mg/kg, ± E.S.M.

C=CCOc1ccc(CC(=O)O)cc1Cl [Alclofenac-Lysine, lysine 4-allyloxy-3-chlorophenylacetate]
SCORES at 24 hours, Average [1, 8]: 2.3
SCORES at 24 hours, Average [1, 9]: 2.6
SCORES at 24 hours, individual [1, 8]: 2 (2×) and 3
SCORES at 24 hours, individual [1, 9]: 2 and 3 and 4 (2×) and 0
pH value of the 10% aqueous solution (pH of aqueous solution; 10% aqueous solution): 7.7
pH of 25% parts/volume aqueous solution (pH of aqueous solution; 25% parts/volume, specification): 7.4-7.8
A ([2]; MEAN ± S.E.M. of 4 rabbits): 165.7 ± 16.6 µg/mL
B ([2]; MEAN ± S.E.M. of 4 rabbits): 293.5 ± 14.2 µg/mL
K12 ([2]; MEAN ± S.E.M. of 4 rabbits): 0.027 ± 0.003 min⁻¹
K21 ([2]; MEAN ± S.E.M. of 4 rabbits): 0.053 ± 0.009 min⁻¹
α ([2]; MEAN ± S.E.M. of 4 rabbits): 0.082 ± 0.011 min⁻¹
A [2, 10]: 170.51 µg/mL and 151.04 µg/mL and 209.59 µg/mL and 131.86 µg/mL
B [2, 10]: 269.19 µg/mL and 324.95 µg/mL and 269.89 µg/mL and 310.16 µg/mL
CL [2, 10]: 0.56 mL/min/kg and 0.63 mL/min/kg and 0.36 mL/min/kg and 0.74 mL/min/kg
K12 [2, 10]: 0.030 min⁻¹ and 0.034 min⁻¹ and 0.028 min⁻¹ and 0.018 min⁻¹
K21 [2, 10]: 0.051 min⁻¹ and 0.078 min⁻¹ and 0.038 min⁻¹ and 0.047 min⁻¹
Kel [2, 10]: 0.0033 min⁻¹ and 0.0019 min⁻¹ and 0.0036 min⁻¹
Vdβ [2, 10]: 0.274 L/kg and 0.329 L/kg and 0.285 L/kg
t1/2α [2, 10]: 6 min and 10.5 min (2×)
t1/2β [2, 10]: 6.8 h and 5.02 h and 10.5 h and 4.43 h
α [2, 10]: 0.083 min⁻¹ and 0.113 min⁻¹ and 0.067 min⁻¹ and 0.066 min⁻¹
β [2, 10]: 0.0017 min⁻¹ and 0.0023 min⁻¹ and 0.0011 min⁻¹ and 0.0026 min⁻¹
k el ([2]; rabbit, in vivo, iv, 90 mg/kg, MEAN ± S.E.M. of 4 rabbits, read-out: β (converted)): 3.17e-05 s⁻¹
clearance ([2]; rabbit, plasma, iv, 90 mg/kg, MEAN ± S.E.M. of 4 rabbits): 0.57 ± 0.08 mL/min/kg
k el ([2]; rabbit, plasma, iv, 90 mg/kg, MEAN ± S.E.M. of 4 rabbits, read-out: Kel (converted)): 4.83e-05 s⁻¹
Vd ([2]; rabbit, plasma, iv, 90 mg/kg, MEAN ± S.E.M. of 4 rabbits, read-out: Vdβ): 0.304 ± 0.015 L/kg
half-life ([2]; rabbit, plasma, iv, 90 mg/kg, MEAN ± S.E.M. of 4 rabbits, read-out: t1/2α): 0.15 ± 0.0167 h
half-life ([2]; rabbit, plasma, iv, 90 mg/kg, MEAN ± S.E.M. of 4 rabbits, read-out: t1/2β): 6.68 ± 1.35 h
Vd ([2]; rabbit, plasma, iv, 90 mg/kg, MEAN ± S.E.M. of 4 rabbits, read-out: √1): 0.196 ± 0.005 L/kg
Vd ([2]; rabbit, plasma, iv, 90 mg/kg, MEAN ± S.E.M. of 4 rabbits, read-out: √2): 0.392 ± 0.06 L/kg
k el ([2]; rabbit, plasma, iv, 90 mg/kg, individual, in order Rabbit I, II, III, IV, read-out: Kel (converted)): 4.5e-05 s⁻¹
Vd ([2]; rabbit, plasma, iv, 90 mg/kg, individual, in order Rabbit I, II, III, IV, read-out: Vdβ): 0.33 L/kg
half-life ([2]; rabbit, plasma, iv, 90 mg/kg, individual, in order Rabbit I, II, III, IV, read-out: t1/2α): 0.142 h
Vd ([2]; rabbit, plasma, iv, 90 mg/kg, individual, in order Rabbit I, II, III, IV, read-out: √1): 0.205 L/kg
tolerability on injection ([3]; intravenous or intramuscular): well tolerated after either intravenous or intramuscular administration
tolerability per os ([3]; oral): better tolerated per os; also recorded: better tolerance
Solubility (Solubility): soluble in biological fluids; also recorded: extremely soluble in water and alcohols; also recorded: insoluble in acetone
Solubility (Solubility; listed as compound (1)): very soluble in water and alcohols; also recorded: insoluble in acetone
analgesic, antipyretic and antiinflammatory properties [4]: equal or even superior to those of the starting acid
tolerability versus Mervan (rat leg): better more tolerated than a commercially available preparation
Ka [5, 11]: 0.0131 ± 0.0031 min⁻¹
t1/2α [5, 11]: 1 ± 0.183 h
Ka [5, 12]: 0.0174 ± 0.0047 min⁻¹
t1/2α [5, 12]: 0.616667 ± 0.13333 h
Cmax [5, 13]: 454.5 ± 152.2 µg/mL
Kel [5, 13]: 0.0023 ± 0.0005 min⁻¹
Tmax [5, 13]: 2.18 ± 0.467 h
Vdβ [5, 13]: 0.301 ± 0.050 L/kg
t1/2β [5, 13]: 6.28 ± 1.53 h
Ka [5, 14]: 0.132 ± 0.032 min⁻¹
t1/2α [5, 14]: 0.13 ± 0.05 h
CL [5, 15]: 0.55 ± 0.03 mL/kg
Cmax [5, 15]: 473.7 ± 24.1 µg/mL
Kel [5, 15]: 0.0026 ± 0.0004 min⁻¹
Tmax [5, 15]: 0.65 ± 0.183 h
Vdβ [5, 15]: 0.248 ± 0.072 L/kg
t1/2β [5, 15]: 4.47 ± 1.18 h
intramuscular absorption velocity, in words ([5]; intramuscular, versus per os): may be compared with that per os
intramuscular blood levels, in words ([5]; intramuscular, versus per os): instantaneous and sustained blood levels are lower
absorption velocity ([5]; oral and rectal route): higher absorption velocity even through the oral and rectal route
absorption, in words ([5]; oral and rectal route, rabbits, listed as Lysine Salt): absorbed faster and to a higher extent in comparison with the acidic substance
CL/F [5, 16]: 0.67 ± 0.06 mL/min/kg
k el [5, 16]: 1.17e-05 s⁻¹
Cmax ([5]; rabbit, plasma, im, 80 mg/kg, INTRAMUSCOLAR 80 mg/kg, ± E.S.M., read-out: Cmax): 144 ± 30 µg/mL
Vd/F ([5]; rabbit, plasma, im, 80 mg/kg, INTRAMUSCOLAR 80 mg/kg, ± E.S.M., read-out: Vdβ): 0.607 ± 0.09 L/kg
half-life ([5]; rabbit, plasma, im, 80 mg/kg, INTRAMUSCOLAR 80 mg/kg, ± E.S.M., read-out: t1/2β): 23.4 ± 6.3 h
Tmax ([5]; rabbit, plasma, im, 80 mg/kg, INTRAMUSCOLAR 80 mg/kg, ± E.S.M., read-out: tmax (converted)): 4.62 h
% Availability (AUC o → 2h) ([6]; I.V. 90 mg/kg, 0-2 h, reference): 100%
% Availability (AUC o → 4h) ([6]; I.V. 90 mg/kg, 0-4 h, reference): 100%
% Availability (practical AUC) ([6]; I.V. 90 mg/kg, reference): 100%
% Availability (theoretical AUC) ([6]; I.V. 90 mg/kg, reference): 100%
bioavailability at 2 h ([6]; rabbit, plasma, 100 mg/kg, Rectal 100 mg/kg, 0-2 h, i.v. as reference, read-out: % Availability (AUC o → 2h)): 95.7%
bioavailability ([6]; rabbit, plasma, 100 mg/kg, Rectal 100 mg/kg, i.v. as reference, read-out: % Availability (practical AUC)): 100%
bioavailability ([6]; rabbit, plasma, 100 mg/kg, Rectal 100 mg/kg, i.v. as reference, read-out: % Availability (theoretical AUC)): 89.2%
bioavailability ([6]; rabbit, plasma, im, 80 mg/kg, I.M. 80 mg/kg, i.v. as reference, read-out: % Availability (practical AUC)): 95.4%
bioavailability ([6]; rabbit, plasma, im, 80 mg/kg, I.M. 80 mg/kg, i.v. as reference, read-out: % Availability (theoretical AUC)): 155%
bioavailability at 4 h ([6]; rabbit, plasma, po, 90 mg/kg, P.O. 90 mg/kg, 0-4 h, i.v. as reference, read-out: % Availability (AUC o → 4h)): 58.1%
bioavailability ([6]; rabbit, plasma, po, 90 mg/kg, P.O. 90 mg/kg, i.v. as reference, read-out: % Availability (practical AUC)): 88.5%
bioavailability ([6]; rabbit, plasma, po, 90 mg/kg, P.O. 90 mg/kg, i.v. as reference, read-out: % Availability (theoretical AUC)): 82.7%
Stability of the solution ([7]; in words, listed as compound (1)): perfectly stable
Hygroscopicity ([7]; isolated solid): non-hygroscopic
